Results from patent publication US20040038369A1, “Airway-specific trypsin-like enzymes and method of using the same” (priority 2000, published 2004).

Columns and labels:
[1] = Enzymatic activity of mammalian ASTs transiently expressed in 293 EBNA cells; type: biochemical
Description: A forward primer and a reverse primer were prepared on gene sequences encoding the N-terminal and C-terminal of each mammalian AST, and a cDNA encoding the full-length AST was prepared by a PCR amplification using the forward primer, the reverse primer, Pyrobest DNA polymerase (produced by Takara Shuzo Co.), and an airway cDNA as a template. On the other hand, a product obtained by cleaving pcDNA3 (produced by Invitrogen Corp.) with restriction enzymes NruI and KpnI, and the promoter domain of Elongation Factor-1a (EF-1 a) from human genome were amplified by a PCR using a forward primer: […] and a reverse primer: […]. […]
Human fetal kidney-originated 293 EBNA cells (Invitrogen Corp.) were cultured in a 10 cm schale, and the about 5.8×10^6 cells were transfected with 28 μg of each expression plasmid prepared in (1) in 56 μL of LipofectAMINE 2000 (produced by GibcoBRL Corp.) according to an appended manual. […] 40 μL of the above-described assay sample was mixed with 20 μL of a synthetic substrate solution (a solution obtained by diluting a 10 mM Boc-Phe-Ser-Arg-MCA DMSO (dimethyl sulfoxide) solution with the buffer solution for the AST activity assay 50 times), and the increase of the fluorescence intensity per minute was assayed (fluorescence wavelength: 460 nm, excitation wavelength: 380 nm) to determine the enzymatic activity.

PAR-2 = target: T1, PAR-2 (Homo sapiens, UniProt P55085); test: Calcium influx in PAR-2-expressing insect cells; type: cell-based; settings: AST 2 units/mL; trypsin, thrombin 0.1 to 10 units/mL; SFLLRNamide, SLIGRL 10 to 100 μM
T1 construct: expressed in transfected cells; host or cells: Sf9 insect cells infected with recombinant baculovirus VL-PAR (pVL1393)
T1 sequence (P55085 26-397): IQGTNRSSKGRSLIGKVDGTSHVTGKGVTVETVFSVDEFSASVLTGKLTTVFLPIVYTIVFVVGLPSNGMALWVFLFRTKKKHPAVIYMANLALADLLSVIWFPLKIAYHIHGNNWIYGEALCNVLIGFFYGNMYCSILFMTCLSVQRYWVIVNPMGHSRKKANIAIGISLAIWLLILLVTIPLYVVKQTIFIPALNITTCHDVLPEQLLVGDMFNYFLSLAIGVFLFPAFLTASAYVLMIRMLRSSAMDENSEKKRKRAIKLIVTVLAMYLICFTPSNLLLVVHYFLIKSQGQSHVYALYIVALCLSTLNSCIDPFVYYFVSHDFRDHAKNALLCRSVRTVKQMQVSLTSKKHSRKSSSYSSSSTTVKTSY
Description: The above-obtained recombinant baculovirus VL-PAR for expressing the PAR was used to infect 1.0×10^7 Sf9 cells sowed on a 75 cm^2 flask at an MOI=2, and was then left and stationally cultured at 27° C. for 40 hours. After the culture, the infected cells were recovered and then subjected to a calcium influx experiment to-confirm the function of the PAR.
The recovered infected cells (about 5×10^6 cells) were once washed with HEPES-Tyrode buffer solution-Ca^2+ (−) pH 7.4, and then suspended in 5 mL of HEPES-Tyrode buffer solution (containing Fura2-AM, 1 μg/mL) to load the Fura2-AM on the cells at 27° C. for 30 minutes. The suspension was centrifuged at 800 rpm at room temperature for 5 minutes to recover the cells. The cells were twice washed with HEPES-Tyrode buffer solution-Ca^2+ (−) pH 7.4 and then resuspended in 5 mL of HEPES-Tyrode buffer solution-Ca^2+ (−) pH 7.4. The cell suspension was mixed with 5 μL of 1M CaCl2 to give a final concentration of 1 mM CaCl2, and then incubated in a shaded state at room temperature for 5 minutes. The prepared Fura2-AM-loaded infected cells were dispensed into a 96 well plate in a volume of 100 μL/well, further subjected to the dispensation of HEPES-Tyrode buffer solution-C^2+ (+) pH 7.4 in a volume of 80 μL/well, and then assayed with a Fluorescence Drug Screening System (made by Hamamatsu Photonics Co.). Namely, [intensity of 500 nm fluorescent light due to 340 nm exciting light]/[intensity of 500 nm fluorescent light due to 380 nm exciting light] (reflecting the concentration of calcium in the cells) was assayed.

Substance: HAST: human airway-specific trypsin-like enzyme; propeptide moiety bound to trypsin-like protein moiety via a disulfide bond
- Cell lysate Fluorescence intensity ratio (Human:100) ([1]; 293 EBNA cell lysate, three days after transfection): 100
- Sup Fluorescence intensity ratio (Human:100) ([1]; 293 EBNA, Sup): 100
- Ca2+ influx (PAR-2): observed
